Source: publication PMC10584170, “Machine learning-based phenotypic imaging to characterise the targetable biology of Plasmodium falciparum male gametocytes for the development of transmission-blocking antimalarials” (PLOS Pathogens, 2023)
Where two headings read alike, the source gives them in different places.

How the values were obtained:
[1] = test system: HepG2 cells; assay: HepG2 cytotoxicity counter-screen; details: for Mean TOX: mean of the HepG2 TOX50 values; for DGFA Tox50 HepG2: HepG2 value reported with the DGFA screen
[2] = test system: HepG2 cells; details: cited from earlier work
[3] = test system: P. falciparum female gametocytes; assay: P. falciparum Dual Gamete Formation Assay (PfDGFA), female readout (Pfs25-positive female gametes); assay type: cell-based, Plasmodium falciparum NF54; details: for inhibition at 2 µM: 24h preincubation with gametocytes
Procedure, shortened: (§1)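 Day-14 NF54 gametocytes were incubated with compound for 24 h at 37°C under 1% O2/3% CO2/96% N2. Gametogenesis was triggered with ookinete medium (0.1 μM xanthurenic acid) plus Cy3-anti-Pfs25, and exflagellation was imaged by brightfield after cooling to 4°C then 28°C. Females were imaged by Pfs25 fluorescence 24 h later at 28°C.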

[4] = test system: P. berghei ookinete development; assay: P. berghei Ookinete Development Assay (PbODA); assay type: cell-based, Plasmodium berghei; details: Mean TOX HepG2 over Pb ODA value; GREEN = >10-fold; RED = <10-fold
Excerpt: (§2) Fig 1 The activity of TCAMS compound identified in the Pf DGFA screen. (A) 85 molecules were confirmed active in the Pf DGFA. 58 were previously identified in one or more transmission-blocking screens. […] No molecule was identified with >4.7-fold greater activity against female gametocytes. Abbreviations (IC50 = concentration giving 50% inhibition, PbODA = P. berghei Ookinete Development Assay, PfDGFA = P. falciparum Dual Gamete Formation Assay, PfFGAA = P. falciparum Female Gametocyte Activation Assay, PfGCT = P. falciparum Gametocyte Viability ATP Assay).

[5] = test system: P. falciparum male gametocytes; assay: P. falciparum Dual Gamete Formation Assay (PfDGFA), male readout (exflagellation); assay type: cell-based, Plasmodium falciparum NF54; details: for inhibition at 2 µM: 24h preincubation with gametocytes
Procedure, shortened: as §1

[6] = test system: P. falciparum female gametocytes; assay: P. falciparum Female Gametocyte Activation Assay (PfFGAA); assay type: cell-based, Plasmodium falciparum
Excerpt: as §2

[7] = test system: P. falciparum female gametocytes; parameters: method as in Miguel-Blanco et al 2017; details: ref Miguel-Blanco et al 2017; read-out: Pf female gametogenesis FGAA IC50; cited from earlier work
[8] = this study, read-out: Pf DGFA IC50 FEM
[9] = this study, read-out: Pf DGFA IC50 MALE
[10] = Mean TOX HepG2 over FGAA IC50, GREEN = >10-fold, RED = <10-fold

IC50 [5, 9] [µM] | Structure (SMILES) | Mean TOX [1] [µM] | ODA TOX50 HepG2 [2] [µM] | Cytotox ratio Pf Female [3] | IC50 [3, 8] [µM] | Cytotox ratio Pb Ookinete [4] | Cytotox ratio Pf Male [5] | also measured
0.1 | COc1ccc(Nc2ncc(C#N)c(Nc3ccccc3C(N)=O)n2)cc1N1CCN(C)CC1.Cl [TC22] | 8.95 | 8.318 | 0.9 |  | 308001.0 | 89.5 | 
0.46 | CN1CCN(c2ccc(Nc3ncc(Cl)c(Nc4cccnc4C(N)=O)n3)cc2)CC1.Cl [TC24] | 5.46 | 4.624 | 1.0 | 5.47 | 13093.5 | 11.9 | 
0.28 | COc1ccc(-c2cnc(N)c(-c3ccc(C(N)=O)cc3)c2)cc1OC [TC26] | 57.57 | 100 | 5.8 |  | 82067.7 | 205.6 | 
0.18 | CNC(=O)c1ccccc1Nc1nc(Nc2ccc(N3CCOCC3)cc2)ncc1Cl.Cl [TC28] | 2.23 | 3.631 | 0.223 |  | 3489.3 | 12.4 | 
0.43 | COc1ccc2nc(-c3cc(-c4ccc(NC(=O)C(C)C)cc4)cnc3N)[nH]c2c1 [TC32] | 8.50 | 8.61 | 0.85 |  | 12253.3 | 19.8 | 
0.47 | Cl.NC(=O)c1ccccc1Nc1nc(Nc2cccc(N3CCN(CCO)CC3)c2)ncc1Cl [TC33] | 27.38 | 41.687 | 2.7 |  | 311828.0 | 58.3 | 
0.72 | Cn1c(Sc2ncnc3sccc23)nc2ccccc21 [TC34] | 100.00 | 100 | 178.6 | 0.56 | 156933.9 | 138.9 | DGFA Tox50 HepG2 [1]: 100 µM; FGAA TOX50 HepG2 [2]: 100 µM; Cytotox ratio Pf FGAA [6, 10]: 80.0; IC50 [7]: 1.25 µM
0.04 | Cc1cc(Nc2ncc(C#N)c(Nc3ccccc3C(N)=O)n2)ccc1N1CCN(C)CC1.Cl [TC37] | 1.80 | 3.981 | 0.244 | 7.4 | 66058.5 | 45.1 | FGAA TOX50 HepG2 [2]: 0.4 µM; Cytotox ratio Pf FGAA [6, 10]: 1.1; IC50 [7]: 1.67 µM
1.9 | Cc1cc(C(=O)OCC(=O)Nc2c(C)n(C)n(-c3ccccc3)c2=O)c(C)n1-c1ccc(F)cc1 [TC63] | 59.75 | 19.5 | 41.8 | 1.43 | 166949.3 | 31.4 | DGFA Tox50 HepG2 [1]: 100 µM
0.01 | CCS(=O)(=O)Nc1ccc2c(c1)/C(=C(/Nc1ccc(CN3CCCCC3)cc1)c1ccccc1)C(=O)N2 [TC81] | 8.77 | 16.98 | 0.9 |  | 6770.0 | 877.0 | 
 | CN(C)CCOc1ccc(NC(=O)NC(C)(C)c2nc(-c3ccc(Cl)c(O)c3)c(-c3ccncc3)[nH]2)cc1.Cl [TCMDC-140744] | 21.75 |  |  |  |  |  | Tox50 ([1]; cytotoxic activity against HepG2 cells): 29.19 µM; FGAA TOX50 HepG2 ([2]; HepG2 value reported with the FGAA screen, ref Miguel-Blanco et al 2017): 14.3 µM; Cytotox ratio Pf FGAA ([6]; human): 29.8; Selectivity ratio F ([3]; HepG2 Tox50 versus female IC50): 76.37; Cytotox ratio Pf Female ([3]; Mean TOX HepG2 over DGFA IC50 FEM, GREEN = >10-fold, RED = <10-fold): 57.2; inhibition at 2 µM ([3]; Plasmodium falciparum, average of replicates, read-out: Average inhibition female (%)): 95.5%; inhibition at 2 µM ([3]; Plasmodium falciparum, replicate R1, read-out: % inhibition female (individual replicates) R1): 91.1%; inhibition at 2 µM ([3]; Plasmodium falciparum, replicate R2, read-out: % inhibition female (individual replicates) R2): 96.2%; inhibition at 2 µM ([3]; Plasmodium falciparum, replicate R3, read-out: % inhibition female (individual replicates) R3): 101%; inhibition at 2 µM ([3]; Plasmodium falciparum, replicate R4, read-out: % inhibition female (individual replicates) R4): 93.9%; IC50 ([3]; Plasmodium falciparum, PfDGFA, 24 h incubation with gametocytes before induction, female gamete readout, read-out: Female IC50): 0.38 µM; IC50 [7]: 0.73 µM; Selectivity Ratio M ([5]; HepG2 Tox50 versus male IC50): 89.77; Cytotox ratio Pf Male ([5]; Mean TOX HepG2 over DGFA IC50 MALE, GREEN = >10-fold, RED = <10-fold): 65.9; inhibition at 2 µM ([5]; Plasmodium falciparum, average of replicates, read-out: Average inhibition male (%)): 97.8%; inhibition at 2 µM ([5]; Plasmodium falciparum, replicate R1, read-out: % inhibition male (individual replicates) R1): 98.2%; inhibition at 2 µM ([5]; Plasmodium falciparum, replicate R2, read-out: % inhibition male (individual replicates) R2): 101%; inhibition at 2 µM ([5]; Plasmodium falciparum, replicate R3, read-out: % inhibition male (individual replicates) R3): 95.7%; inhibition at 2 µM ([5]; Plasmodium falciparum, replicate R4, read-out: % inhibition male (individual replicates) R4): 96.3%; IC50 ([5]; Plasmodium falciparum, PfDGFA, 24 h incubation with gametocytes before induction, exflagellation readout, read-out: Male IC50): 0.33 µM

Structure (SMILES) | IC50 [5, 9] [µM] | Mean TOX [1] [µM] | ODA TOX50 HepG2 [2] [µM] | Cytotox ratio Pf Female [3] | IC50 [3, 8] [µM] | Cytotox ratio Pb Ookinete [4] | Cytotox ratio Pf Male [5] | also measured
Br.CC[C@H]1CN2CCc3cc(OC)c(OC)cc3[C@@H]2C[C@@H]1C[C@H]1NCCc2c1cc(OC)c(O)c2I [TC07] | 0.84 | 5.89 | 5.433 | 20.3 | 0.29 | 8736.5 | 7.0 | 
CCC1=C[C@@H]2CN(C1)Cc1c([nH]c3ccccc13)[C@@](C(=O)OC)(c1cc3c(cc1OC)N(C)[C@H]1[C@@](O)(C(=O)OC)[C@H](O)[C@]4(CC)C=CCN5CC[C@]31[C@@H]54)C2.O=S(=O)(O)O [TC21] | 0.01 | 48.44 | 41.2098 | 4.8 |  | 80190.9 | 4844.5 | 
Cc1cccc(Nc2nc(N[C@@H]3CCCNC3)nc3cc[nH]c(=O)c23)c1.O=C(O)C(F)(F)F [TC29] | 0.21 | 4.09 | 4.57 | 0.532 | 7.69 | 3922.6 | 19.5 | FGAA TOX50 HepG2 [2]: 3.25 µM; Cytotox ratio Pf FGAA [6, 10]: 2.2; IC50 [7]: 1.85 µM
O=C(O)C(F)(F)F.O=c1[nH]ccc2nc(N[C@@H]3CCCNC3)nc(Nc3ccc(S(=O)(=O)N4CCOCC4)cc3)c12 [TC42] | 0.06 | 33.80 | 45.71 | 4.1 | 8.17 | 23182.4 | 563.3 | 
CN1CCN(c2ccc(Nc3ncc(C#N)c(Nc4ccccc4C(N)=O)n3)cc2)CC1.Cl [TC49] | 0.03 | 3.07 | 2.427 | 0.335 | 9.17 | 95106.6 | 102.3 | 
COc1ccc(Nc2ncc(OC)c(Nc3ccccc3C(N)=O)n2)cc1N1CCN(C)CC1.O=CO [TC59] | 0.18 | 9.37 | 13.49 | 1.2 | 7.91 | 19018.5 | 52.0 | 
COc1ccc2nc(-c3cc(-c4ccc(NC(C)=O)cc4)cnc3N)[nH]c2c1 [TC69] | 0.54 | 7.55 | 12.02 | 0.755 |  | 10513.6 | 14.0 | 
C#C[C@H]1O[C@@H](n2cnc3c(Nc4cc(Br)cc(C(F)(F)F)c4)ncnc32)[C@H](O)[C@@H]1O [TC70] | 0.3 | 78.77 | 57.54 | 7.9 |  | 88432.3 | 262.6 | DGFA Tox50 HepG2 [1]: 100 µM
COc1ccc(Nc2ncc(Cl)c(Nc3cccnc3C(N)=O)n2)cc1N1CCN(C)CC1.Cl [TC75] | 0.4 | 7.10 | 11.22 | 0.7 |  | 11414.1 | 17.8 | 
